How the values were obtained:
A9 DA neurons = format: in vivo, rat
Description: Retrograde 6-OHDA lesioning within the striatum is a well-established method of creating progressive degeneration of A9 DA neurons. The loss of TH immunoreactivity reflects actual loss of DA neurons (Sauer, 1994).
The in vivo neuroprotective effects of G-substrate against 6-OHDA-induced toxicity was examined by injecting 6-OHDA into the corpus striatum of rats which previously had either G-substrate or control genes (empty vector or YFP) delivered to the midbrain using the lentivirus as described above. 6-OHDA induced approximately an 80% loss of TH-positive neurons in the midbrain (FIG. 12Q) and complete loss of TH immunoreactivity in the striatum (data not shown). The severity of the striatal insult in this paradigm precluded our ability to usefully measure protection of striatal nerve terminals. […] Furthermore, most of the surviving TH-positive neurons in lenti G-substrate-transduced rats were strongly G-substrate-positive (FIGS. 12G-12L).
Rats received two 2.75 μl stereotaxic injections of either lenti-empty vector+lenti-eGFP (n=19), lenti-G substrate+lenti-eGFP (n=19), or lenti-YFP (n=14) and delivered at a rate of 0.2 μl/min using microinfusion pumps (Stoelting Co, Wood Dale, Ill.) with 10 min wait times after each injection. Lenti-eGFP was added to each condition, excluding the YFP condition, to serve as an exogenous marker for surgical targeting (0.5 μl of the total 5.5 μl A volume). SN injection coordinates were as follows: site 1: AP −4.8, ML −2.0, DV −7.2; site 2: AP −5.5, ML −1.8, DV −7.2; and tooth bar set at −3.3. Virus titers (p24) were as follows: G substrate, 60 ng/μl; empty vector, 60 ng/μl; eGFP, 83 ng/μl; and YFP, 60 ng/μl.
Two weeks following lentiviral injection, animals (lenti-empty vector+lenti-eGFP (n=9), lenti-G substrate+lenti-eGFP (n=9), or lenti-YFP (n=14)) received three 2.5 μl stereotaxic injections of 3.0 μg/μl 6-OHDA (total dose=22.5 μg 6-OHDA) delivered at a rate of 0.5 μl/min and 5 min wait times after each injection. Striatum injection coordinates were as follows: site 1: AP +1.3, ML −2.8, DV −4.5; site 2: AP +0.2, ML, −3.0, DV −5.0; site 3: AP −0.6, ML −4.0, DV −5.5; and tooth bar set at −3.3. The lesion was allowed to progress for 3 weeks after which animals were sacrificed for post mortem analyses.
Brains were cut frozen in the coronal plane at a thickness of 40 μm on a sliding microtome and six series of sections were stored in cryoprotectant. Two full series of sections were processed for visualization of tyrosine hydroxylase (TH) via the biotin-labeled antibody procedure. Briefly, following several washes in a PBS solution containing 0.01% Triton X-100 (PBS-T), endogenous peroxidase was quenched in a 3% hydrogen peroxide solution and background staining was then inhibited in a 5% normal goat serum solution. […]

BE(2)-M17 cells = test: In vitro protection assays (MTS cell viability, LDH release) against neurotoxins; format: cell-based, human; settings: lentiviral overexpression in BE(2)-M17 cells, toxin 20 hrs
Description: Viability of the M17 cells was assessed following exposure to a variety of neurotoxins, each representing different aspects of PD pathology. 6-hydroxydopamine (6-OHDA) causes oxidative stress. MG-132 induces proteasome inhibition. And, MPP+ causes mitochondrial dysfunction by inhibiting Complex I. Cytotoxicity of M17 cells was determined using both cell viability assays and LDH release. G-substrate overexpression in M17 cells was confirmed by Western blot analysis (FIG. 3A) and by immunocytochemistry (FIG. 3B).
BE(2)-M17 cells were transduced with lentivirus expressing control or G-substrate with a multiplicity of infection 15. Cells were grown in Optimem™ (Invitrogen, Carlsbad, Calif.) supplemented with 10% heat-inactivated fetal calf serum (Hyclone, Logan, Utah), nonessential amino acid and sodium pyruvate. Cells were maintained at 37° C., in 5% CO2 humid atmosphere. For the bioassay, cells were plated in 96 well plates at 5000 per well. The next day, cells were treated with various concentrations of 6-OHDA (Sigma), MG-132 (Calbiochem) and MPP+ (Sigma) for 20 hrs. The supernatant was used to determine cytotoxicity using LDH release assay kit (Roche, Indianapolis, Ind.) and the cells remaining on the plate was used to determine cell viability using MTS based solution, CellTiter 96 AQueous One™ solution cell proliferation assay (Promega, Madison, Wis.).
Three different siRNAs for human G-substrate as described herein, a negative control siRNA, and a validated Akt siRNA (Ambion; Austin, Tex.) were used. Cells were plated in 96 well plates at 5000 per well with siRNAs and siPORT NeoFX transfection agent (Ambion, Austin, Tex.). After 48 hrs of incubation with siRNAs, each of the toxicants (6-OHDA, MG-132 or MPP+) were applied to the cells. Cell viability and cytotoxicity was measured after 20 hrs of toxin exposure.

“G-substrate: human wild type G-substrate (SEQ ID NO.: 1) overexpressed from a lentiviral vector” was tested, and the DA neuronal protection (A9 DA neurons; 6-OHDA-lesioned rats) was ~10%, the “transduced DA neurons protected from 6-OHDA-induced toxicity” value (A9 DA neurons; worked out from 22.3% transduction and ˜10% protection) was “approximately 50%” and the “protection against MPP+-induced toxicity (cell viability, LDH release)” value (BE(2)-M17 cells) was “neither wild-type nor T123A mutant G-substrate overexpression was protective”. For the same substance, the “neuroprotection against 6-OHDA toxicity (cell viability, LDH release)” value (BE(2)-M17 cells; compared to control) was “neuroprotective” and the “neuroprotection against MG-132 toxicity (cell viability, LDH release)” value (BE(2)-M17 cells; compared to control) was “neuroprotective”.
